According to the OligoGym collection:
After the bases stand the sugars from the 5' end (letter, count) and the backbone: PS all phosphorothioate, else s phosphorothioate and o phosphodiester by linkage. Methylation of C is not given here. e = 2'-O-(2-methoxyethyl) (MOE); k = constrained ethyl (cEt); d = 2'-deoxy (DNA); m = 2'-O-methyl

Biological target: HSD17B13
Conditions: ASO, HepaRG

Sequence | target mRNA inhibition (1 µM) [%] | further results
CAATAGTACTATAGTA (sugars k3 d10 k3, PS) | 14 | 
CAATCCCAACCAAACT (sugars k3 d10 k3, PS) | 49 | 
CAATTTATCATACCAC (sugars k3 d10 k3, PS) | 37 | 
CAATTTATTTGCTGGT (sugars k3 d10 k3, PS) | 31 | 
CACAAGCACACTGTAA (sugars k3 d10 k3, PS) | 2 | 
CACAAGTAAGGTAAAG (sugars kkdddddddddkekek, PS) | 38 | 
CACACTAATGAATCAT (sugars k3 d10 k3, PS) | 30 | 
CACATAGCTAACTCAG (sugars k3 d10 k3, PS) | 42 | 
CACATATGTGAAGAGC (sugars k3 d10 k3, PS) | 71 | 
CACGATTGTTACATCA (sugars k3 d10 k3, PS) | 37 | 
CACTAAAGGTTTCTGT (sugars k3 d10 k3, PS) | 56 | 
CACTAATATTGAGGCA (sugars k3 d10 k3, PS) | 31 | 
CACTAATCTCAGTACT (sugars k3 d10 k3, PS) | 48 | 
CACTAATGAATCATGA (sugars k3 d10 k3, PS) | 25 | 
CACTCAGCTGCAGTTT (sugars k3 d10 k3, PS) | 13 | 
CACTGATTTAGTTGGT (sugars k3 d10 k3, PS) | 66 | 
CACTGCCAGATTGCAC (sugars k3 d10 k3, PS) | 38 | 
CACTGGATGGATTTCT (sugars k3 d10 k3, PS) | 72 | 
CACTGTGACGATGTGG (sugars k3 d10 k3, PS) | 10 | 
CAGAAATTCACCTTGA (sugars k3 d10 k3, PS) | 28 | 
CAGAAGTATGTGAACT (sugars k3 d10 k3, PS) | 22 | 
CAGAATAGAGTTGCAC (sugars k3 d10 k3, PS) | 50 | 
CAGACTAAGGGACCAG (sugars k3 d10 k3, PS) | 75 | target mRNA inhibition (0.02 µM): 23%; target mRNA inhibition (0.078 µM): 24%; target mRNA inhibition (0.313 µM): 63%; target mRNA inhibition (1.25 µM): 76%; target mRNA inhibition (5 µM): 89%
CAGACTTCTTACGACT (sugars k3 d10 k3, PS) | 33 | 

Sequence | target mRNA inhibition (1 µM) [%] | further results
CAGAGACATGAGGTTT (sugars k3 d9 k3 e1, PS) | 45 | 
CAGATTATTATGTGAT (sugars k3 d9 k3 e1, PS) | 38 | 
CAGATTATTATGTGAT (sugars k3 d10 k3, PS) | 51 | 
CAGATTATTATGTGAT (sugars kkdddddddddkekek, PS) | 31 | 
CAGAUTGGAATGCTAC (sugars k3 d1 m1 d8 k3, PS) | 70 | target mRNA inhibition (0.02 µM): 7%; target mRNA inhibition (0.078 µM): 25%; target mRNA inhibition (0.313 µM): 42%; target mRNA inhibition (1.25 µM): 56%; target mRNA inhibition (5 µM): 82%
CAGCAAAGTTTGGGCA (sugars k3 d10 k3, PS) | 37 | 
CAGCATATTCATTTGG (sugars k3 d10 k3, PS) | 49 | 
CAGCATTGATTCGAAA (sugars k3 d1 m1 d8 k3, PS) | 37 | 
CAGCATTGATTCGAAA (sugars k3 d9 k3 e1, PS) | 53 | 
CAGCATTGATTCGAAA (sugars k3 d10 k3, PS) | 69 | target mRNA inhibition (0.02 µM): 2%; target mRNA inhibition (0.078 µM): 0%; target mRNA inhibition (0.313 µM): 26%; target mRNA inhibition (1.25 µM): 56%; target mRNA inhibition (5 µM): 65%
CAGGCTGTAAGAGTCA (sugars k3 d10 k3, PS) | 56 | 
CAGTAGATTTGGTAGA (sugars k3 d10 k3, PS) | 49 | 
CAGTCCTTGTGTAGTC (sugars k3 d10 k3, PS) | 70 | target mRNA inhibition (0.02 µM): 18%; target mRNA inhibition (0.078 µM): 21%; target mRNA inhibition (0.313 µM): 49%; target mRNA inhibition (1.25 µM): 79%; target mRNA inhibition (5 µM): 95%
CAGTCTTAAACCTTCC (sugars kkdddddddddkekek, PS) | 51 | 
CAGTTTTCCTCATGAT (sugars k3 d9 k3 e1, PS) | 65 | 
CATAAAGCTGGATTGT (sugars k3 d10 k3, PS) | 0 | 
CATAACTACTTCAGTT (sugars k3 d10 k3, PS) | 3 | 
CATAACTTCATAGTGG (sugars k3 d10 k3, PS) | 31 | 
CATAACTTCATAGTGG (sugars kkdddddddddkekek, PS) | 15 | 
CATAATAATAGCTCTA (sugars k3 d10 k3, PS) | 41 | 
CATACCCATTCTAACT (sugars k3 d10 k3, PS) | 6 | 
CATATTCCCTGATGAT (sugars k3 d10 k3, PS) | 14 | 
CATCCCCTAAGTTATT (sugars k3 d10 k3, PS) | 24 | 
CATCTACATGGATCCA (sugars k3 d10 k3, PS) | 63 | 

Sequence | target mRNA inhibition (1 µM) [%] | further results
CATCTCTGGGACCAAG (sugars kkdddddddddkekek, PS) | 44 | 
CATGAAGATTAGTTAA (sugars k3 d10 k3, PS) | 11 | 
CATTAAGCTTAGTATA (sugars k3 d10 k3, PS) | 19 | 
CATTAATGCCACCCTA (sugars k3 d10 k3, PS) | 8 | 
CATTATAAGCTAACTA (sugars k3 d10 k3, PS) | 39 | 
CATTATTCACCACGAT (sugars k3 d10 k3, PS) | 33 | 
CATTCGGCTAGGCGCG (sugars k3 d10 k3, PS) | 46 | 
CCAAAAATCAGCCACT (sugars k3 d10 k3, PS) | 0 | 
CCAAAAATGTCCTAGG (sugars k3 d10 k3, PS) | 38 | 
CCAACGCAACAGTTTA (sugars k3 d10 k3, PS) | 77 | 
CCAACTATGTAATAGG (sugars k3 d10 k3, PS) | 68 | 
CCAAGGCCTGAAGTTC (sugars k3 d10 k3, PS) | 20 | 
CCAAGGCTTATGAAGT (sugars k3 d10 k3, PS) | 27 | 
CCAATATAATCCAAAG (sugars k3 d10 k3, PS) | 28 | 
CCAATATGGGATGAGG (sugars k3 d10 k3, PS) | 60 | 
CCAATTATGAATCTGC (sugars k3 d10 k3, PS) | 61 | 
CCAATTTAAATCAGGC (sugars k3 d10 k3, PS) | 73 | target mRNA inhibition (0.02 µM): 0%; target mRNA inhibition (0.078 µM): 17%; target mRNA inhibition (0.313 µM): 52%; target mRNA inhibition (1.25 µM): 72%; target mRNA inhibition (5 µM): 89%
CCAGAAAGTTCATTCG (sugars k3 d10 k3, PS) | 81 | target mRNA inhibition (0.02 µM): 38%; target mRNA inhibition (0.078 µM): 51%; target mRNA inhibition (0.313 µM): 64%; target mRNA inhibition (1.25 µM): 79%; target mRNA inhibition (5 µM): 91%
CCAGGTTGAGATAAAG (sugars k3 d1 m1 d8 k3, PS) | 49 | 
CCATAAAGCTGGATTG (sugars k3 d10 k3, PS) | 40 | 
CCATAATCTGTGATTA (sugars k3 d10 k3, PS) | 9 | 
CCATCTATCAGACTTC (sugars kkdddddddddkekek, PS) | 52 | 
